This note sets out measurements from patent publication US20080311103A1, “Anti-Inflammatory Peptides and Methods of Use Thereof” (YEDA RESEARCH AND DEVELOPMENT CO. LTD. at THE WEIZMANN …, priority 2004, published 2008).

Like-named read-outs stand apart in the source and are kept apart here.

The subject of assay [1] is BALB/C mice. Put plainly: TNBS-induced colitis model of inflammatory bowel disease (IBD). The format is in vivo, mouse. The settings on record: 200 μg/mouse SC daily; day 7 after TNBS. The procedure: BALB/C mice, which were anesthetized for 5-10 min, received by intrarectal administration, 30 μl of a solution of 2,4,6-trinitrobenzene sulfonic acid (TNBS; 100 mg/kg) dissolved in 0.9% NaCl and mixed with an equal volume of ethanol (50% ethanol). Animals were killed 7 days after TNBS administration.
Wound fluid peptides were administered once daily by subcutaneous (SC) administration starting 1 day before the induction of colitis and every day for the next 7 days as follows:
Treatment with the wound fluid peptides was evaluated at day 7 by determination of macroscopic inflammation scores. The colon of each mouse was examined under a dissecting microscope to evaluate the macroscopic lesions according to the Wallace criteria. The Wallace score lists macroscopic colon lesions on a scale from 0 to 10 based on features reflecting inflammation, such as hyperemia, thickening of the bowel, and extent of ulceration (Wallace, J. L., et al. 1989, Gastroenterology, 96:29).

In assay [2] the test system is mice sensitized with oxazolone. It counts as in vivo, mouse. Conditions: ear measured 24 hours after oxazolone challenge, BALB/c mice. On the procedure: Groups of 5 female inbred BALB/c mice (The Jackson Laboratory, Bar Harbor, Me.) were sensitized on the shaved abdominal skin with 2% oxazolone (100 μl) dissolved in acetone/olive oil [4:1 (vol/vol)] applied topically. Delayed type hypersensitivity (DTH) was elicited 5 days later by challenging the mice with 0.5% oxazolone in acetone/olive oil (10 μl given topically to each side of the ear). A constant area of the ear was measured immediately before and 24 hours after the challenge using a Mitutoyo engineer's micrometer. The percent inhibition of DTH is calculated as follows:
% Inhibition=[1-{(treated−negative control)/(positive control−negative control)}]×100.
The positive control is the DTH reaction to oxazolone elicited in sensitized mice without treatment. The negative control is the background swelling produced by the oxazolone antigen in naïve non-sensitized mice.
Peptides Nos. 1-5 were given to the mice by mini perfusion pumps (alzet osmotic pump model 2001), which contained the indicated peptide (40 μg; 200 μl). The pumps were implanted under the mouse skin one day before oxazolone sensitization and they released the peptide in a rate of 1 μl per hour (0.2 μg/hour) for 7 days.
Peptides Nos. 6-10 were given to the mice by subcutaneously injection (1 μg or 10 μg per mouse), every day, starting at one day before oxazolone sensitization and ending at day 5 post DTH initiation.

Assay [3] concerns anti-CD3 antibody induced IFNγ secretion from T cells. In words: IFNγ secretion by anti-CD3 activated T cells. It counts as cell-based, human. Details: concentration or dose not given beside the values. The settings on record: 24 hours; ELISA; FIG. 7B. On the procedure: (§1) Human T cells were purified and maintained in culture (RPMI containing 10% FCS, 1% Pyruvate, 1% glutamine, 1% antibiotics, 7.5% CO2, humidified atmosphere) for 15 hr before they were transferred to RPMI and activated (2 hr, 37° C.) with the indicated concentrations of the peptides. The cells were then plated (1.5×10^6 cells/0.5 ml/well) in 24 wells plates (non-tissue culture grade) precoated with anti-CD3 mAb in order to stimulate the cells to secrete cytokines. After 24 hours, the supernatants were collected and their cytokine content (TNFα and IFNγ) was determined by ELISA using anti-IFNγ and anti TNFα mAb (Pharmingen; San Diego, Calif.) according to the manufacturer's instructions.
(In an ELISA, binding on a coated surface is turned into a signal by an enzyme label.)

A further assay concerns T cells. Put plainly: Chemotaxis assay: T cell migration toward SDF-1α. It counts as cell-based. The settings on record: concentration range 10-1000 ng/ml; SDF-1α 250 ng/ml; 3 hr. The procedure: The migration of ^51-[Cr]-labeled T cells was examined in […] Transwell chemotaxis apparatus (6.5-mm diameter; Corning, N.Y.), consisting of two compartments separated by polycarbonate filters (5 μm pore size) pretreated (1 hr, 37° C.) with FN (25 μg/ml). ^51-[Cr]-labeled T cells (2×10^5 in 100 μl of RPMI containing 0.1% BSA and antibiotics), which were pre-incubated with the indicated concentrations of peptides (30 min, 37° C.), were added to the upper chambers. The bottom chambers contained 0.6 ml of the same media, with or without human Stromal cell-Derived Factor-1α (SDF-1α; 250 ng/ml). After incubation at 37° C. for 3 hr (7.5% CO2-humidified atmosphere), cells that had transmigrated into the lower wells were collected, centrifuged, and lysed (in 100 μl of distilled water containing 1 M NaOH and 0.1% Triton X-100), and the radioactivity in the resulting supernatants was determined with a γ-counter. The percentage (±SD) of cell migration was calculated as the radioactivity counts in the lysates of the lower chambers (representative of the migrating cells) divided by the total counts (representative of 2×10^5 cells).

The subject of assay [4] is BALB/C mice. Put plainly: Con A-induced hepatic injury (acute hepatitis model). The format is in vivo. The settings on record: 50 μg/mouse intraperitoneally, 2 or 3 injections before ConA, especially after 3 treatments; FIG. 10B. On the procedure:
Con A (13 mg/kg) was administered i.v. to BALB/c mice 18 hours before analysis (Bonder, C. S. et al. 2004. J. Immunol. 172: 45-53). Mice were intraperitoneally injected with the peptides of the invention 48 and 2 hours before ConA injection.
Blood analysis: 18 hours after Con A injection, blood was obtained by cardiac puncture for detection of serum alanine aminotransferase (ALT) and aspartate aminotransferase (AST). The presence of these two enzymes in serum is used as an index of hepatocellular injury. The detection of ALT and AST was performed by a commercial kit for ALT and AST (Bayer Diagnostics, Tarry town, NY, USA) using an automated Monarch Monoanalyzer 2000 (Allied, Lexington, Mass.).

Assay [5] deals with anti-CD3 antibody induced TNFα secretion from T cells. Put plainly: TNFα secretion by anti-CD3 activated T cells. It counts as cell-based, human. Conditions: peptide 100 ng/ml; 24 hours; ELISA; FIG. 7A. On the procedure: as §1
Another assay has as its system Jurkat and THP-1 cells. Put plainly: TNFα secretion by PMA/PHA induced Jurkat and THP-1 cells. Conditions: peptide 1 μg/ml; 48 hours; ELISA. It counts as cell-based, human. The procedure:
Jurkat cells human T cell lymphoma line) (2×10^6 cells/ml) cultured in RPMI-1640 supplemented with 10% FCS were activated with PMA (50 ng/ml) and phytohaemagglutinin PHA (4 µg/ml) for 6 hours at 37° C. (7.5% CO2-humidified atmosphere). Thereafter, the cells were washed, plated on 24-well plates (10^6 cells/well in 0.5 ml), and incubated (1 hour at 37° C., 7.5% CO2-humidified atmosphere) with the indicated concentrations of peptides 1-5. Following the incubation, THP-1 cells (human monocytic cell line derived from a patient with acute monocytic leukaemia; 1.25×10^5 cells/0.5 ml/well) were added to the wells. After 48 hours, the supernatants were collected and their TNF[…] content was determined by ELISA using anti TNF[…] mAb (Pharmingen; San Diego, Calif.) according to the manufacturer's instructions.

The subject of another assay is NF-κB. In words: Nuclear translocation of NF-κB in T cells (Western blot). It counts as cell-based. Conditions: peptide 100 ng/ml for 2 hours, then anti-CD3 mAb 24 hr; human T cells. An excerpt: To address the modulatory role of the wound fluid peptides on the signal transduction cascade leading to regulation of T-cell secretion of TNF-α(and IFN-γ, the nuclear translocation of NF-κB was detected by probing nuclear and cytoplasmic T-cell extracts using mAb specific for the p65 subunit of NF-κB. The nuclear protein Lamin B was used as continuatively expressed control protein for the quantification of protein amounts.
Human T cells. T cells were purified from the peripheral blood of healthy human donors (Blood Bank; Tel-Hashomer, Israel). The whole blood was incubated (20 min, 22° C.) with RosetteSep™ human T-cell enrichment cocktail (StemCell Technologies, Vancouver, BC, Canada). The remaining unsedimented cells were then loaded onto Lymphocyte Separation Medium (ICN Biomedicals; Belgium), isolated by density centrifugation, and washed with PBS. The purified cells (>95% CD3^+ T cells) so obtained were cultured in RPMI containing antibiotics and 10% heat-inactivated FCS. Western blot analysis of T-cell nuclear extracts. Purified T cells (5×10^6) were preincubated with the peptides (100 ng/ml) for 2 hours (37° C. in a 7% CO2, humidified atmosphere). The cells were then replated in 24-well plates pre-coated with anti-CD3 mAb for 24 hr (37° C. in a 7% CO2, humidified atmosphere). T cells were lysed in 10 mM HEPES, 1.5 mM MgCl2, 1 mM dithiothreitol (DTT), 1 mM PMSF, 0.5% Nonidet P-40. The lysates were incubated on ice for 10 min and centrifuged at 2000 rpm for 10 min at 4° C. The supernatants (cytoplasmic extracts) were transferred and the pellet (nuclei) was suspended in buffer containing 30 mM HEPES, 450 mM NaCl, 25% Glycerol, 0.5 mM EDTA, 6 mM DTT, 12 mM MgCl2 1 mM PMSF, 10 μg/ml leupeptin, 10 μg/ml pepstatin, 1% phosphatase inhibitor cocktail, and the suspension was incubated on ice for 30 min. The lysates were cleared by centrifugation (30 min, 14×10^3 rpm, 4° C.), and the resulting supernatants analyzed for protein content. […]

[6] abbreviates: FIG. 1, peptides by implanted osmotic pump, 0.2 μg/hour for 7 days.

In the case of `C[C@@H]1C[C@H]2[C@@H]3CCC4=CC(=O)C=C[C@]4(C)[C@@]3(F)[C@@H](O)C[C@]2(C)[C@@]1(O)C(=O)CO` [Dexamethasone, reference compound], in the assay with BALB/C mice [1], the “Wallace score (macroscopic inflammation score, scale 0 to 10)” value is given as 2.9±1. The “inhibition of DTH response” value in assay [2] (setting [6]) is around 70%; in assay [2] (FIG. 2, peptides subcutaneously 1 μg or 10 μg per mouse every day), around 70%.
“LSALEEYTKKLNTQ [peptide No. 2, residues 254-267 of Apo A-I; identified in wound fluids, then synthesized]”: the “inhibition of anti-CD3 antibody induced IFNγ secretion from T cells” value in assay [3] is listed as around 30%. In addition, the “inhibition of T cell transmigration toward SDF-1α” value with T cells is reported as “did not show a significant inhibition”. The “resistance to ConA induced hepatitis” value with BALB/C mice [4] was “marked resistance”. Further, the “inhibition of anti-CD3 antibody induced TNFα secretion from T cells” value in assay [5] worked out at 40%. Further, in assay [2] (setting [6]), the “inhibition of DTH response” value was “hardly inhibited”. Also, the “inhibition of TNFα secretion by Jurkat and THP-1 cells compared to PMA/PHA alone” value in the assay on Jurkat and THP-1 cells came out at 10%. Also, the “NF-κB translocation to the nucleus” value in the assay with NF-κB was “significant down-regulation”.
